In patent publication US8329644B2, “Lantibiotic-based compounds having antimicrobial activity” (Novacta Biosystems Limited, priority 2007, dated 2012):
≈ marks a conversion by molar mass, not a printed value. Where two headings read alike, the source gives them in different places.

How the values were obtained:
Water solubility = assay type: physicochemical; details: aqueous
Source text: Typically, compounds of the invention were isolated using phosphate buffers.

[1] = Stability in simulated gastric fluid (SGF); assay type: in vitro ADME; details: 37° C., analytical HPLC
Method: (§1) Nisin, mersacidin, compound I and compound III were tested for their susceptibility towards enzymatic digestion in the stomach. Nisin, mersacidin and compound III were tested for their susceptibility towards enzymatic digestion in the intestine. The SGF and SIF were based on the standard USP solutions for simulated gastric and simulated intestinal fluids and their activity confirmed against Bovine Serum Albumin (Hilger et al, Clin. Exp. Immunol. 2001, 123, 387-94). The compounds were incubated in SGF or SIF at 37° C. and their concentrations quantified by analytical HPLC (UV detection at 210 nm). The potential degradation of each compound was also monitored qualitatively by measuring in vitro antibacterial activity against Micrococcus luteus.

[2] = rat, 100 mg/kg oral
Method: Male Sprague-Dawley rats were dosed with compound I at 100 mg/kg via the oral route. Faeces and urine were collected over a 48 h period in two batches (at 24 h and 48 h post dose). Blood samples were taken at various time points for the first 24 h.

E. faecium = experiment: MIC susceptibility testing, E. faecium; assay type: cell-based; details: Enterococcus faecium
Method: (§2) Susceptibility testing for all aerobic organisms with the exception of Streptococcus pneumoniae was performed by two-fold serial antibiotic dilutions in Mueller-Hinton Broth supplemented with 50 μg/ml Ca^2+ unless otherwise noted. Susceptibility testing for S. pneumoniae was performed by two-fold serial antibiotic dilutions in Brain-Heart-Infusion Broth supplemented with 50 μg/ml Ca^2+ unless otherwise noted. Actively growing broth cultures were diluted to contain […] by adjusting to an OD600 of 0.2-0.3. They were then diluted a further 1:100 in fresh sterile broth. The assays were performed in duplicate in sterile 96-well microtitre plates in a total volume of 200 μl (160 μl broth, 20 μl antimicrobial agent, 20 μl inoculum) in a concentration range from 64 μg/ml to 0.06 μg/ml. […] Clinical isolates of Clostridium difficile were tested in Wilkins-Chalgren Anaerobe Agar under anaerobic conditions. In all cases, vancomycin was used as a reference antibiotic

E. faecalis = experiment: MIC susceptibility testing, E. faecalis; assay type: cell-based; details: Enterococcus faecalis; E. faecalis 29212; Table 2; read-out: MIC
Method: as §2

S. aureus = experiment: MIC susceptibility testing, S. aureus; assay type: cell-based, Staphyloccus aureus; details: Staphylococcus aureus, Table 2, read-out: MIC
Method: as §2

S. epidermidis = experiment: MIC susceptibility testing, S. epidermidis; assay type: cell-based, Staphylococcus epidermidis; details: Staphylococcus epidermidis
Method: as §2

M. luteus = experiment: MIC susceptibility testing, M. luteus; assay type: cell-based; details: Micrococcus luteus; M. luteus 4698; Table 2; read-out: MIC
Method: as §2

S. pneumoniae = experiment: MIC susceptibility testing, S. pneumoniae (Brain-Heart-Infusion Broth); assay type: cell-based, Streptococcus pneumoniae; details: Streptococcus pneumoniae; S. pneumoniae R6; Table 2; read-out: MIC
Method: as §2

Clostridium difficile = experiment: MIC, Clostridium difficile in Wilkins-Chalgren Anaerobe Agar; assay type: cell-based; parameters: key: MIC in μg/ml (two-fold dilutions, 0.06–64)
Method: as §2

E. coli = experiment: MIC against intestinal flora organisms, E. coli; assay type: cell-based; details: for MIC: Escherichia coli, read-out: Minimal Inhibitory Concentration (MIC)
Method: as §2

[3] = system: Bifidobacterium adolescentis; experiment: MIC against intestinal flora organisms, Bifidobacterium adolescentis; assay type: cell-based; details: NCTC11814; Bifidobacterium adolescentis NCTC 11814; Table 5; read-out: Minimal Inhibitory Concentration (MIC)
Bifidobacterium longum = experiment: MIC against intestinal flora organisms, Bifidobacterium longum; assay type: cell-based; details: NCTC11818; Bifidobacterium longum NCTC 11818; Table 5; read-out: Minimal Inhibitory Concentration (MIC)
Bacteroides fragilis = experiment: MIC against intestinal flora organisms, Bacteroides fragilis; assay type: cell-based; details: NCTC9343; Bacteroides fragilis NCTC 9343; Table 5; read-out: Minimal Inhibitory Concentration (MIC)
[4] = system: Bacteroides thetaiotaomicron; experiment: MIC against intestinal flora organisms, Bacteroides thetaiotaomicron; assay type: cell-based; details: NCTC10582; Bacteroides thetaiotaomicron NCTC 10582; Table 5; read-out: Minimal Inhibitory Concentration (MIC)
[5] = system: C. difficile strain VPI 10463; experiment: Hamster model of C. difficile associated cecitis, first experiment (FIG. 1); assay type: in vivo; details: C. difficile VPI 10463, three times daily at 50 mg/kg/day, 5-day dosing period, groups of 6
Method: In the first experiment (FIG. 1) groups of 6 animals were dosed with approximately 10^7 cells of C. difficile strain VPI 10463 and 24 hours later with a subcutaneous dose of 10 mg/kg clindamycin phosphate.
The procedure as described induced a C. difficile infection in the test animals, from which all animals treated only with vehicle died within 3 days.

Micrococcus luteus = experiment: In vitro antibacterial activity against Micrococcus luteus during SIF incubation; assay type: cell-based; details: after incubation in SIF
Method: as §1

## CC[C@H](C)[C@@H]1NC(=O)[C@@H]2NC(=O)[C@H](CC(C)C)NC(=O)[C@H](NC(=O)[C@@H]3CSC[C@@H](N)C(=O)N[C@@H](CO)C(=O)NCC(=O)N[C@@H](Cc4c[nH]c5ccccc45)C(=O)N[C@@H](C(C)C)C(=O)N3)[C@H](C)SC[C@H](NC(=O)[C@H](CCC(=O)O)NC1=O)C(=O)NCC(=O)N[C@H]1C(=O)N[C@@H](CC(C)C)C(=O)N[C@@H](C(C)C)C(=O)N[C@@H](CS[C@H]2C)C(=O)N[C@@H](C)C(=O)N[C@H](C(=O)NCCO)CS[C@H]1C [Compound I, Deoxy-Actagardine B N-[2-ethanolamine]monocarboxamide]
Water solubility
  solubility: 15 mg/mL (≈ 7820 µM)
[1]
  degradation in Simulated Gastric Fluid: did not show appreciable degradation
[2]
  material recovered from plasma or urine: No material was recovered

## CN[C@H](CC(C)C)C(=O)N[C@H]1C(=O)N[C@@H](CC(N)=O)C(=O)N[C@H]2C(=O)N[C@H]3C(=O)N[C@H](C(=O)N[C@H](C(=O)O)c4cc(O)cc(O)c4-c4cc3ccc4O)[C@H](O)c3ccc(c(Cl)c3)Oc3cc2cc(c3O[C@@H]2O[C@H](CO)[C@@H](O)[C@H](O)[C@H]2O[C@H]2C[C@](C)(N)[C@H](O)[C@H](C)O2)Oc2ccc(cc2Cl)[C@H]1O [Vancomycin, vancomycin, reference compound]
E. faecium; ATCC19579, E. faecium (VSE) ATCC 19579, Table 5, read-out: Minimal Inhibitory Concentration (MIC)
  MIC: 0.5 µg/mL (≈ 0.345 µM)
E. faecium; ATCC29212, read-out: Minimal Inhibitory Concentration (MIC), E. faecium (VSE) ATCC 29212, Table 5
  MIC: 4 µg/mL (≈ 2.76 µM)
E. faecium; E. faecium 19579, Table 2, read-out: MIC
  MIC: 4 µg/mL (≈ 2.76 µM)
E. faecium; E. faecium 7131121, Table 2, read-out: MIC
  MIC: > 64 µg/mL
E. faecium; VRE, E. faecium (VRE) (clinical isolate), Table 5, first isolate, read-out: Minimal Inhibitory Concentration (MIC)
  MIC: > 64 µg/mL
E. faecium; VRE, E. faecium (VRE) (clinical isolate), Table 5, second isolate, read-out: Minimal Inhibitory Concentration (MIC)
  MIC: > 64 µg/mL
E. faecalis
  MIC: 4 µg/mL (≈ 2.76 µM)
S. aureus; S. aureus R33
  MIC: 1 µg/mL (≈ 0.69 µM)
S. aureus; S. aureus SH1000
  MIC: 2 µg/mL (≈ 1.38 µM)
S. epidermidis
  MIC: 2 µg/mL (≈ 1.38 µM)
M. luteus
  MIC: 2 µg/mL (≈ 1.38 µM)
S. pneumoniae
  MIC: > 64 µg/mL
Clostridium difficile; Clostridioides difficile, C. difficile 027C, Table 4, read-out: MIC
  MIC: 0.5 µg/mL (≈ 0.345 µM)
Clostridium difficile; Clostridioides difficile, C. difficile 027SM, Table 4, read-out: MIC
  MIC: 0.5 µg/mL (≈ 0.345 µM)
Clostridium difficile; Clostridioides difficile, C. difficile 19126, Table 4, read-out: MIC
  MIC: 1 µg/mL (≈ 0.69 µM)
Clostridium difficile; Clostridioides difficile, C. difficile 37779, Table 4, read-out: MIC
  MIC: 1 µg/mL (≈ 0.69 µM)
Clostridium difficile; Clostridioides difficile, C. difficile B32, Table 4, read-out: MIC
  MIC: 1 µg/mL (≈ 0.69 µM)
Clostridium difficile; Clostridioides difficile, C. difficile E4, Table 4, read-out: MIC
  MIC: 1 µg/mL (≈ 0.69 µM)
Clostridium difficile; Clostridioides difficile, C. difficile E16, Table 4, read-out: MIC
  MIC: 1 µg/mL (≈ 0.69 µM)
Clostridium difficile; Clostridioides difficile, C. difficile E101, Table 4, read-out: MIC
  MIC: 1 µg/mL (≈ 0.69 µM)
Clostridium difficile; Clostridioides difficile, C. difficile P24, Table 4, read-out: MIC
  MIC: 1 µg/mL (≈ 0.69 µM)
Clostridium difficile; Clostridioides difficile, C. difficile P49, Table 4, read-out: MIC
  MIC: 0.5 µg/mL (≈ 0.345 µM)
Clostridium difficile; Clostridioides difficile, C. difficile P59, Table 4, read-out: MIC
  MIC: 1 µg/mL (≈ 0.69 µM)
Clostridium difficile; Clostridioides difficile, C. difficile P62, Table 4, read-out: MIC
  MIC: 0.5 µg/mL (≈ 0.345 µM)
E. coli; E. coli DC2 (membrane more susceptible), Table 5, first line
  Minimal Inhibitory Concentration (MIC): >64 µg/mL
E. coli; ATCC25922, E. coli ATCC 25922, Table 5
  MIC: > 64 µg/mL
E. coli; E. coli DC2 (membrane more susceptible), Table 5, second line
  MIC: > 64 µg/mL
[3]
  MIC: 1 µg/mL (≈ 0.69 µM)
Bifidobacterium longum
  MIC: 1 to 2 µg/mL (≈ 0.69 to 1.38 µM)
Bacteroides fragilis
  MIC: 32 µg/mL (≈ 22.1 µM)
[4]
  MIC: 64 µg/mL (≈ 44.2 µM)
[5]
  survival of infected animals: survived for the duration of the entire 5-day dosing period

## Deoxy-Actagardine B N-[2-hydroxy-2-phenylethylamine]monocarboxamide [Compound XX]
Clostridium difficile; C. difficile 027C, Table 4A
  MIC: 2
Clostridium difficile; C. difficile 630, Table 4A
  MIC: 2
Clostridium difficile; C. difficile 19126, Table 4A
  MIC: 2
Clostridium difficile; C. difficile 37779, Table 4A
  MIC: 2

## Deoxy-actagardine B (2-hydroxypiperazine) monocarboxamide [Compound XXIII]
Clostridium difficile; C. difficile 027C, Table 4A
  MIC: 4
Clostridium difficile; C. difficile 630, Table 4A
  MIC: 2
Clostridium difficile; C. difficile 19126, Table 4A
  MIC: 4
Clostridium difficile; C. difficile 37779, Table 4A
  MIC: 4

## Deoxy-actagardine B (L-serine methyl ester) monocarboxamide [Compound XXI]
Clostridium difficile; C. difficile 027C, Table 4A
  MIC: 2
Clostridium difficile; C. difficile 630, Table 4A
  MIC: 4
Clostridium difficile; C. difficile 19126, Table 4A
  MIC: 4
Clostridium difficile; C. difficile 37779, Table 4A
  MIC: 4

## Deoxyactagardine B (N-(2-hydroxyethyl)ethylenediamine) monocarboxamide [Compound XXII]
Clostridium difficile; C. difficile 027C, Table 4A
  MIC: 2
Clostridium difficile; C. difficile 630, Table 4A
  MIC: 2
Clostridium difficile; C. difficile 19126, Table 4A
  MIC: 2
Clostridium difficile; C. difficile 37779, Table 4A
  MIC: 2

## mersacidin
Micrococcus luteus
  in vitro activity against M. luteus during the course of the experiment: remained unaltered
